1 molecule from article PMC9576757, “A small molecule inhibitor of the UBE2F-CRL5 axis induces apoptosis and radiosensitization in lung cancer” (Signal Transduction and Targeted Therapy, 2022) can be followed below.

Numbering of substitutions follows the chain as printed.

Assay [1] deals with T1, UBE2F (Homo sapiens, UniProt Q969M7).
T1 construct: recombinant, pET-28a with His-SUMO tag cleaved by Ulp1 (un-tagged), expressed in E. coli Rosetta 2(DE3) pLysS
T1 sequence (Q969M7 1-185): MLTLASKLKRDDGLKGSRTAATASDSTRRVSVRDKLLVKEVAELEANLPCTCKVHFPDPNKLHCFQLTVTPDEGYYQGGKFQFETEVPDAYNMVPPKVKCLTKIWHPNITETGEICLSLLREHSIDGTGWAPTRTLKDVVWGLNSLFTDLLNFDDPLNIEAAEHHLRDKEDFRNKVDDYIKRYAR
Put plainly: E2 NEDD8 thioester assay, iFluor 680-NEDD8, SDS-PAGE fluorescence scan. It counts as biochemical.

Assay [2] addresses T2, UBE2F (Homo sapiens, UniProt Q969M7, K97A/K99A/R121A).
T2 construct: recombinant, pET-28a with His-SUMO tag cleaved by Ulp1 (un-tagged), expressed in E. coli Rosetta 2(DE3) pLysS
T2 sequence (Q969M7 1-185 K97A/K99A/R121A): T1 sequence (Q969M7 1-185) with K97A, K99A, R121A
In words: thermal shift assay with Western blotting. The assay is classed as binding. Conditions: V98 pocket mutant.

The target in assay [3] is T1, UBE2F. In words: differential scanning fluorimetry, SYPRO orange. It counts as binding. Particulars: tested as mesylate salt; 2 μM UBE2F, 1 °C/min from 25 to 95 °C; maximum of a dose series (printed 'up to'). Background: DSF heats the sample and reads unfolding from a dye or from intrinsic fluorescence.
The target of assay [4] is T3, UBE2F (Homo sapiens, UniProt Q969M7, F153A/D154A/H165A).
T3 construct: recombinant, pET-28a with His-SUMO tag cleaved by Ulp1 (un-tagged), expressed in E. coli Rosetta 2(DE3) pLysS
T3 sequence (Q969M7 1-185 F153A/D154A/H165A): T1 sequence (Q969M7 1-185) with F153A, D154A, H165A
Put plainly: thermal shift assay with Western blotting. It counts as binding. Conditions: N152 pocket mutant.

On to `Cc1ccc(C(=O)N2CCN(c3ccc(NC(=O)/C=C/c4c[nH]c5ncccc45)cc3)CC2)cc1` [iV26-9-10-4, HA-9104], for which, in assay [1], the IC50 (as a rule, the point on the concentration scale where inhibition reaches its midpoint) was approximately 49 µM. Further, the thermal stabilization result is “V98 mutant was a little more thermo-stable and less stabilized by HA-9104” in assay [2]; “N152 mutant was very thermo-stable and largely resistant to HA-9104-induced stabilization” in assay [4]. In addition, the dTm in assay [3] was ~ 4 °C.
